Results as given in patent US20250129370A1, “METHOD FOR REDUCING HEPATIC TRIGLYCERIDES” (ADAERATA, LIMITED PARTNERSHIP, priority 2022, published 2025).

Test system: PCSK7 mRNA
Experiment: PCSK7 mRNA qPCR after miRNA overexpression in Huh7 cells
Type: cell-based, human
Conditions: Huh7, 48 hours following transfection, vs mock vector
Protocol: RNA was isolated from the cells with the TRIzol™ Reagent (Invitrogen, USA) according to the manufacturer's instructions. The RNA samples were treated with RNase-free DNase I (Fermentas, USA) to eliminate any possible DNA contamination. Reverse transcription was performed using the PrimeScript™ First Strand cDNA Synthesis Kit (Takara, Japan) following the manufacturer's protocol. Briefly, one unit of the DNase I enzyme, 1 μL of a buffer, and 1 μg of total RNA were incubated for 30 minutes at 37° C. Then, 1 μL of 50 mM EDTA was added for enzyme inactivation and incubated at 65° C. for 10 minutes. Subsequently, 5 μL of DNase-treated RNA was added to the mix of 0.5 μL of the reverse-transcriptase enzyme, 2 μL of the reverse-transcriptase buffer, and 1 μL of a random hexamer and incubated for 15 minutes at 37° C., followed by 5 seconds at 85° C. for enzyme inactivation. Stem-loop RT-qPCR method was applied for evaluating the expression of miRNAs (Kramer, 2011). […]
All the reactions were repeated in duplicates. Next, melt curves were analyzed, with the mean threshold cycles used for further analyses. The relative expressions of the miRNAs and PCSK7 to RNU48 small nuclear RNA and/or GAPDH and β2m were calculated, respectively, via the 2-ΔΔCt method. […]

## miR-125a-5p: miRNA targeting PCSK7 3′-UTR and exons 14 and 15, overexpressed from pEGFP-C1 precursor vector (UCCCUGAGACCCUUUAACCUGUGA; miRNA expressed from a pEGFP-C1 precursor vector, further chemistry not given here)
  effect on expression of PCSK7 mRNA: did not reach statistical significance
